According to US20050209157A1, “Short bioactive peptides and methods for their use” (priority 2001, published 2005):
Values after ≈ are worked out from the molar mass of the structure shown. Values joined by “and” are separate entries in the source; they are usually repeats but may differ in a detail not shown here. Identical values can stand only once. Like-named read-outs stand apart in the source and are kept apart here. No end group written: not given here.

Experiments:
[1] = tested on: P. acne ATCC 6919; assay: Antimicrobial assays II, NCCLS broth microdilution MIC; type: cell-based, Propionibacterium acnes; details: mean of three, in µg/mL
[2] = tested on: S. pneumoniae C719; assay: as above; type: cell-based, Streptococcus pneumoniae; details: mean of three, in µg/mL
[3] = tested on: S. pyogenes ATCC19615; assay: as above; type: cell-based, Streptococcus pyogenes; details: mean of three, in µg/mL
[4] = tested on: S. epidermidis C621; type: cell-based, Staphylococcus epidermidis; details: for S. epidermidis C621 MIC: mean of three, 16 to 20 hours at 35° C.
[5] = tested on: S. pneumoniae C718; assay: Antimicrobial assays II, NCCLS broth microdilution MIC; type: cell-based, Streptococcus pneumoniae; details: mean of three
[6] = tested on: S. pyogenes M76; assay: as above; type: cell-based, Streptococcus pyogenes; details: mean of three; 16 to 20 hours at 35° C.
[7] = tested on: Pseudomonas aeruginosa ATCC 9027; assay: Antimicrobial assay I, MIC by OD measurement; type: cell-based; details: 37° C. for 24 hours, absorbance 620 nm
[8] = tested on: Staphylococcus aureus ATCC 6538; assay: Antimicrobial assay I, MIC by OD measurement; type: cell-based; details: 37° C. for 24 hours, absorbance 620 nm
[9] = tested on: P. aeruginosa H774; type: cell-based, Pseudomonas aeruginosa; set-up: key to FIC Index: FIC = 0.25 + MIC antibiotic in combination / MIC alone; ≤0.5 = synergy; details: P. aeruginosa H744; nalidixic acid + peptide at ¼ MIC; 0.5 or less = synergy
Procedure, shortened: (§1)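 Efflux-mutant strains were tested with two-fold serial dilutions of chloramphenicol or nalidixic acid, alone and with peptide held at ¼ of its own MIC.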

[10] = tested on: P. aeruginosa H374; type: cell-based, Pseudomonas aeruginosa; set-up: key to FIC Index: FIC = 0.25 + MIC antibiotic in combination / MIC alone; ≤0.5 = synergy; details: for MIC Cm-comb.: MIC of chloramphenicol with peptide at ¼ MIC; for MIC Nal-comb.: MIC of nalidixic acid with peptide at ¼ MIC; for FIC Index: 0.5 or less = synergy
Procedure, shortened: as §1

[11] = tested on: P. aeruginosa; type: cell-based, Pseudomonas aeruginosa; set-up: key to FIC Index: FIC = 0.25 + MIC antibiotic in combination / MIC alone; ≤0.5 = synergy; details: P. aeruginosa H744; MIC of nalidixic acid with peptide at ¼ MIC
Procedure, shortened: as §1

[12] = tested on: yeast (Saccharomyces cerevisiae); assay: Antimicrobial assay I, yeast assay in RPMI 1640; type: cell-based; details: RPMI 1640 media
[13] = tested on: S. aureus (MRSA); type: cell-based, Staphylococcus aureus; details: for S. aureus (MRSA) MIC: mean of three, 16 to 20 hours at 35° C.
[14] = in vitro; type: cell-based, human; details: human, human red blood cells, pH 7, hemolytic assay, concentration at 50% hemolysis, 1 hour at 37° C.; read-out: LD50
[15] = in vitro; details: human, WI38 normal lung fibroblast cells, LD50 WI38, WI38 normal lung fibroblast line, MTT, 24 hours with peptide
[16] = tested on: BMKC; assay: Anti-cancer assay, MTT, LD50; type: cell-based; details: BMKC cloned melanoma line, 24 hours with peptide
Excerpt: (§2) Numbers are LD50 values (μg/mL).

[17] = tested on: MCF7; assay: Anti-cancer assay, MTT, LD50; type: cell-based; details: MCF7 breast adenocarcinoma line, MTT, 24 hours with peptide
Excerpt: as §2

[18] = tested on: SW480; assay: Anti-cancer assay, MTT, LD50; type: cell-based; details: SW480 colon adenocarcinoma line, 24 hours with peptide
Excerpt: as §2

[19] = tested on: H1299; assay: Anti-cancer assay, MTT, LD50; type: cell-based; details: 24 hours with peptide, lung large cell carcinoma
Excerpt: as §2

[20] = tested on: PC3; assay: Anti-cancer assay, MTT, LD50; type: cell-based; details: 24 hours with peptide, prostate adenocarcinoma
Excerpt: as §2

[21] = tested on: WI38; details: MTT, 24 hours with peptide; normal fibroblast line
[22] = tested on: HeLaS3; assay: Anti-cancer assay, MTT, LD50; type: cell-based; details: 24 hours with peptide, cervical carcinoma
Excerpt: as §2

[23] = tested on: Pseudomonas aeruginosa 105663; type: cell-based; details: Table 9; in µg/mL
[24] = tested on: E. coli UB1005; type: cell-based, Escherichia coli; details: Table 12
[25] = tested on: Pseudomonas aeruginosa H187; type: cell-based; details: in µg/mL
[26] = tested on: Candida glabrata ATCC15126; assay: Antimicrobial assays II, NCCLS broth microdilution MIC; type: cell-based; details: Table 13; in µg/mL
[27] = tested on: P. aeruginosa H374; type: cell-based, Pseudomonas aeruginosa; details: in µg/mL
[28] = tested on: Candida albicans 105; type: cell-based; details: Table 13; in µg/mL
[29] = tested on: S. typhimurium 14028S; type: cell-based, Salmonella typhimurium; details: Table 12
[30] = tested on: Pseudomonas aeruginosa 100609; type: cell-based; details: Table 9; in µg/mL
[31] = chloramphenicol + peptide at ¼ MIC
[32] = nalidixic acid + peptide at ¼ MIC, FIC=0.25+MIC comb/MIC alone

Compound | P. acne MIC [1] | S. pneumoniae MIC [2] | S. pyogenes MIC [3] | S. epidermidis C621 MIC [4] | S. pneumoniae MIC [5] | S. pyogenes M76 MIC [6] | paerug9027 (MIC) [7] | staph6538 (MIC) [8] | FIC Index [9] | MIC Cm-comb. [10] | MIC Nal-comb. [10] | FIC Index [10, 31] | FIC Index [10, 32] | MIC Nal-comb. [11] | S. aureus (MRSA) MIC [13] | HC50 at 1 h [14] | LD50 BMKC [16] | LD50 MCF7 [17] | LD50 SW480 [18] | H1299 LD50 [19] | further results
FAKLLALALKKAL-NH2 [P97, FAKLLALALKKAL-NH2] | 8 and 16 | 16 and 32 | 4 and 8 | 4 µg/mL | 32 µg/mL | 4 µg/mL | 50 µg/mL | 5 µg/mL | 0.375 | 16 µg/mL | 5000 µg/mL | 1.25 | 1.25 | 78 µg/mL | 8 µg/mL |  |  |  |  |  | yeast (MIC or MFC) [12]: 50 µg/mL
VALALKALKKLLKKLKKLAKKAL-NH2 [P510] | 2 | 16 | 8 | 4 µg/mL | 64 µg/mL | 8 µg/mL |  |  | 1.25 | 4 µg/mL | 625 µg/mL | 0.5 | 0.375 | 624 µg/mL | 8 µg/mL | 10 µg/mL |  |  |  |  | 
FALLKALLKKAL-NH2 [P177, FALLKALLKKAL-NH2] | 8 | 16 | 4 | 4 µg/mL | 32 µg/mL | 8 µg/mL |  |  | 0.75 | 8 µg/mL | 5000 µg/mL | 0.75 | 1.25 | 312 µg/mL | 8 µg/mL | 400 µg/mL | 310 µg/mL | 190 µg/mL | 310 µg/mL |  | CC50 at 24 h [15]: 270 µg/mL
CC(C)C[C@H](NC(=O)[C@H](C)NC(=O)[C@H](CC(C)C)NC(=O)[C@H](C)NC(=O)[C@H](CC(C)C)NC(=O)[C@H](CCCCN)NC(=O)[C@H](C)NC(=O)[C@H](CC(C)C)NC(=O)[C@H](CCCCN)NC(=O)[C@H](CCCCN)NC(=O)[C@H](C)NC(=O)[C@H](CC(C)C)NC(=O)[C@H](CCCCN)NC(=O)[C@H](C)NC(=O)[C@H](CC(C)C)NC(=O)[C@H](CCCCN)NC(=O)[C@H](CCCCN)NC(=O)[C@H](C)NC(=O)[C@@H](N)C(C)C)C(N)=O [P504] | 4 | 8 | 16 | 4 µg/mL | 64 µg/mL | 8 µg/mL |  |  | 2.25 | 16 µg/mL | 5000 µg/mL | 1.25 | 1.25 | 1248 µg/mL | 4 µg/mL | 70 µg/mL |  |  |  |  | 
GIGKFLKKAKKFGKAFVKILKK-NH2 [P42, reference compound] | 2 | 8 | 4 | 2 µg/mL | 32 µg/mL | 4 µg/mL | > (> indicates greater than 200 μg/mL) | 10 µg/mL | 1.25 | 16 µg/mL | 5000 µg/mL | 1.25 | 1.25 | 624 µg/mL | 16 µg/mL |  | 140 µg/mL | 31 µg/mL | 34 µg/mL | 150 µg/mL | yeast (MIC or MFC) [12]: 200 µg/mL; PC3 LD50 [20]: 66 µg/mL
CC[C@H](C)[C@H](NC(=O)CNC(=O)[C@H](CC(C)C)NC(=O)[C@H](CCCCN)NC(=O)[C@H](C)NC(=O)[C@H](CC(C)C)NC(=O)[C@H](C)NC(=O)[C@@H](NC(=O)[C@H](CCCCN)NC(=O)[C@H](C)NC(=O)[C@@H](NC(=O)[C@@H](N)CCCCN)[C@@H](C)CC)C(C)C)C(=O)NCC(=O)N[C@@H](C)C(=O)N[C@H](C(=O)N[C@@H](CC(C)C)C(=O)N[C@@H](CCCCN)C(=O)N[C@H](C(=O)N[C@@H](CC(C)C)C(=O)N[C@H](C(=O)N[C@H](C(=O)NCC(=O)N[C@@H](CC(C)C)C(N)=O)[C@@H](C)O)[C@@H](C)O)C(C)C)C(C)C [P105] | 16 | 32 | 16 | 8 µg/mL | 64 µg/mL | 16 µg/mL | 200 µg/mL | 200 µg/mL |  |  |  |  |  |  | 32 µg/mL |  |  | 635 µg/mL | > (> indicates greater than 1000) | > (> indicates greater than 1000) | CC50 at 24 h [15]: 430 µg/mL (≈ 189 µM); WI38 LD50 [21]: 430 µg/mL; yeast (MIC or MFC) [12]: > (> indicates greater than 200 μg/mL); HeLaS3 LD50 [22]: > (> indicates greater than 1000)
FAKKFAKKFKKFAKKFAKFAFAF-NH2 [P301, reference compound] | 2 | 8 | 8 | 4 µg/mL | > 128 µg/mL | 8 µg/mL |  |  |  | 16 µg/mL | 625 µg/mL |  |  | 624 µg/mL | 8 µg/mL | 10 µg/mL | 140 µg/mL | 64 µg/mL | 76 µg/mL | 77 µg/mL | WI38 LD50 [21]: 66 µg/mL; HeLaS3 LD50 [22]: 170 µg/mL; PC3 LD50 [20]: 45 µg/mL
FAKKLAKKLKKLAKKLAKKWKL-OH [P72] | 2 | 16 | 16 | 4 µg/mL | > 128 µg/mL | 16 µg/mL |  |  | 0.75 | 8 µg/mL | 2500 µg/mL | 0.75 | 0.75 | 312 µg/mL | 16 µg/mL | 110 µg/mL | 290 µg/mL | 93 µg/mL | 82 µg/mL | 160 µg/mL | CC50 at 24 h [15]: 125 µg/mL; WI38 LD50 [21]: 125 µg/mL; HeLaS3 LD50 [22]: 240 µg/mL; PC3 LD50 [20]: 63 µg/mL
FAKKLAKKLAKLAL-NH2 [P45 (27)] |  |  |  |  |  |  |  |  |  |  |  |  |  |  |  |  |  |  |  |  | MIC P. aeruginosa Tb 105663 [23]: 32; MIC E. coli UB1005 [24]: 4 µg/mL; MIC P. aeruginosa H187 ([25]; Table 9): 16; MIC P. aeruginosa H187 ([25]; Table 12): 16; MIC C. glabrata ATCC15126 [26]: 16; MIC P. aeruginosa H374 ([27]; Table 9): 8; MIC P. aeruginosa H374 ([27]; Table 12): 8; MIC S. epidermis C621 ([4]; Table 13, in µg/mL): 16; MIC C. albicans 105 [28]: 16; MIC S. aureus SAP0017 ([13]; Table 13, strain SAP0017, in µg/mL): 32; MIC S. typhimurium 14028S [29]: 32 µg/mL; MIC P. aeruginosa Tb 100609 [30]: 32
